Assay results: patent US10336697B2, “Spiro[cyclobutane-1,3′-indolin]-2′-one derivatives as bromodomain inhibitors” (Orion Corporation, priority 2015, dated 2019)
Counter-ions that a name gives are not always drawn.

Molecular target: Bet BRD4 full length bromo-domain protein (Homo sapiens, UniProt O60885)
Assay: Bet bromodomain TR-FRET assay (displacement of acetyl histone peptide)
Format: binding
Settings: Bet BRD4 full length bromodomain protein, 300 nM acetyl histone peptide substrate, read-out: IC50

Row | SMILES | IC50
1 | CN1CCC(NC(=O)c2cc(NS(=O)(=O)c3ccc(F)cc3F)cc3c2NC(=O)C32CCC2)CC1 [Compound 56, 5′-(2,4-Difluorophenylsulfonamido)-N-(1-methylpiperidin-4-yl)-2′-oxospiro[cyclobutane-1,3′-indoline]-7′-carboxamide] | < 0.6 µM
2 | O=C(Nc1ccncc1)c1cc(NS(=O)(=O)c2ccc(F)cc2F)cc2c1NC(=O)C21CCC1 [Compound 57, 5′-(2,4-Difluorophenylsulfonamido)-2′-oxo-N-(pyridin-4-yl)spiro[cyclobutane-1,3′-indoline]-7′-carboxamide] | < 0.6 µM
3 | CN1CCCC(NC(=O)c2cc(NS(=O)(=O)c3ccc(F)cc3F)cc3c2NC(=O)C32CCC2)C1 (stereo not drawn) [Compound 58, 5′-(2,4-Difluorophenylsulfonamido)-N-(1-methylpiperidin-3-yl)-2′-oxospiro[cyclobutane-1,3′-indoline]-7′-carboxamide] | < 0.6 µM
4 | CC(C)(O)C1CCN(C(=O)c2cc(NS(=O)(=O)c3ccc(F)cc3F)cc3c2NC(=O)C32CCC2)CC1 [Compound 59, 2,4-Difluoro-N-(7′-(4-(2-hydroxypropan-2-yl)piperidine-1-carbonyl)-2′-oxospiro[cyclobutane-1,3′-indolin]-5′-yl)benzenesulfonamide] | > 1 µM
5 | COc1ccccc1S(=O)(=O)Nc1cc(C(=O)NC2CCN(C)CC2)c2c(c1)C1(CCC1)C(=O)N2 [Compound 60, 5′-(2-Methoxyphenylsulfonamido)-N-(1-methylpiperidin-4-yl)-2′-oxospiro[cyclobutane-1,3′-indoline]-7′-carboxamide] | < 0.6 µM
6 | O=C(c1cc(NS(=O)(=O)c2ccc(F)cc2N2CCOCC2)cc2c1NC(=O)C21CCC1)N1CCOCC1 [Compound 61, 4-Fluoro-N-(7′-(morpholine-4-carbonyl)-2′-oxospiro[cyclobutane-1,3′-indolin]-5′-yl)-2-morpholinobenzenesulfonamide] | > 1 µM
7 | O=C1Nc2c(Nc3ccncc3)cc(NS(=O)(=O)c3ccc(F)cc3F)cc2C12CCC2 [Compound 62, 2,4-Difluoro-N-(2′-oxo-7′-(pyridin-4-ylamino)spiro[cyclobutane-1,3′-indolin]-5′-yl)benzenesulfonamide] | > 1 µM
8 | CC(=O)Nc1cc(NS(=O)(=O)c2ccc(F)cc2F)cc2c1NC(=O)C21CCC1 [Compound 63, N-(5′-((2,4-difluorophenyl)sulfonamido)-2′-oxospiro[cyclobutane-1,3′-indolin]-7′-yl)acetamide] | 0.6 to 1 µM
9 | COc1ccccc1S(=O)(=O)Nc1cc(C(=O)NC2CCNCC2)c2c(c1)C1(CCC1)C(=O)N2 [Compound 64, 5′-((2-methoxyphenyl)sulfonamido)-2′-oxo-N-(piperidin-4-yl)spiro[cyclobutane-1,3′-indoline]-7′-carboxamide] | < 0.6 µM
10 | O=C(NC1CCCNC1)c1cc(NS(=O)(=O)c2ccc(F)cc2F)cc2c1NC(=O)C21CCC1 (stereo not drawn) [Compound 65, 5′-(2,4-Difluorophenylsulfonamido)-2′-oxo-N-(piperidin-3-yl)spiro[cyclobutane-1,3′-indoline]-7′-carboxamide] | < 0.6 µM
11 | O=C(NC1CCNCC1)c1cc(NS(=O)(=O)c2ccc(F)cc2F)cc2c1NC(=O)C21CCC1 [Compound 66, 5′-(2,4-Difluorophenylsulfonamido)-2′-oxo-N-(piperidin-4-yl)spiro[cyclobutane-1,3′-indoline]-7′-carboxamide] | < 0.6 µM
12 | O=C1Nc2c(CO)cc(NS(=O)(=O)c3ccc(F)cc3F)cc2C12CCC2 [Compound 69, 2,4-Difluoro-N-(7′-(hydroxymethyl)-2′-oxospiro[cyclobutane-1,3′-indolin]-5′-yl)benzenesulfonamide] | < 0.6 µM
13 | CCN1CCCC(Nc2cc(NS(=O)(=O)c3ccc(F)cc3F)cc3c2NC(=O)C32CCC2)C1 (stereo not drawn) [Compound 70, N-(7′-((1-ethylpiperidin-3-yl)amino)-2′-oxospiro[cyclobutane-1,3′-indolin]-5′-yl)-2,4-difluorobenzenesulfonamide] | < 0.6 µM
14 | O=C1Nc2c(NC3CCCNC3)cc(NS(=O)(=O)c3ccc(F)cc3F)cc2C12CCC2 (stereo not drawn) [Compound 71, 2,4-Difluoro-N-(2′-oxo-7′-(piperidin-3-ylamino)spiro[cyclobutane-1,3′-indolin]-5′-yl)benzenesulfonamide hydrochloride] | < 0.6 µM
15 | CN1CCC(NC(=O)c2cc(N(C)S(=O)(=O)c3ccc(F)cc3F)cc3c2NC(=O)C32CCC2)CC1 [Compound 72, 5′-((2,4-Difluoro-N-methylphenyl)sulfonamido)-N-(1-methylpiperidin-4-yl)-2′-oxospiro[cyclobutane-1,3′-indoline]-7′-carboxamide] | > 1 µM
16 | CN1CCC(NC(=O)c2cc(NS(=O)(=O)c3ccccc3F)cc3c2NC(=O)C32CCC2)CC1 [Compound 73, 5′-(2-Fluorophenylsulfonamido)-N-(1-methylpiperidin-4-yl)-2′-oxospiro[cyclobutane-1,3′-indoline]-7′-carboxamide] | < 0.6 µM
17 | CN1CCC(NC(=O)c2cc(NS(=O)(=O)c3ccc(Br)cc3F)cc3c2NC(=O)C32CCC2)CC1 [Compound 74, 5′-((4-Bromo-2-fluorophenyl)sulfonamido)-N-(1-methylpiperidin-4-yl)-2′-oxospiro[cyclobutane-1,3′-indoline]-7′-carboxamide] | < 0.6 µM
18 | CN1CCC(NC(=O)c2cc(NC(=O)c3ccc(F)cc3F)cc3c2NC(=O)C32CCC2)CC1 [Compound 75, 5′-(2,4-Difluorobenzamido)-N-(1-methylpiperidin-4-yl)-2′-oxospiro[cyclobutane-1,3′-indoline]-7′-carboxamide] | > 1 µM
19 | O=C(Nc1cc(C2CC2)c2c(c1)C1(CCC1)C(=O)N2)c1ccc(F)cc1 [Compound 75a, N-(7′-Cyclopropyl-2′-oxospiro[cyclobutane-1,3′-indolin]-5′-yl)-4-fluorobenzamide] | 0.6 to 1 µM
20 | O=C1C=C(Nc2cc(NS(=O)(=O)c3ccc(F)cc3F)cc3c2NC(=O)C32CCC2)CCN1 [Compound 76, 2,4-Difluoro-N-(2′-oxo-7′-((6-oxo-1,2,3 ,6-tetrahydropyridin-4-yl)-amino)spiro[cyclobutane-1,3′-indolin]-5′-yl)benzenesulfonamide] | < 0.6 µM
21 | COc1ccccc1S(=O)(=O)Nc1cc(NC2=CC(=O)NCC2)c2c(c1)C1(CCC1)C(=O)N2 [Compound 77, 2-Methoxy-N-(2′-oxo-7′-((6-oxo-1,2,3,6-tetrahydropyridin-4-yl)amino)spiro[cyclobutane-1,3′-indolin]-5′-yl)benzenesulfonamide] | < 0.6 µM
22 | COc1ccccc1S(=O)(=O)Nc1cc(NC2CCN(C)CC2F)c2c(c1)C1(CCC1)C(=O)N2 (stereo not drawn) [Compound 78, N-(7′-((3-fluoro-1-methylpiperidin-4-yl)amino)-2′-oxospiro [cyclobutane-1,3′-indolin]-5′-yl)-2-methoxy benzenesulfonamide] | < 0.6 µM
23 | O=C1Nc2c(NC3CCNCC3)cc(NS(=O)(=O)c3ccc(F)cc3F)cc2C12CCC2 [Compound 79a, 2,4-Difluoro-N-(2′-oxo-7′-(piperidin-4-ylamino)spiro [cyclobutane-1,3′-indolin]-5′-yl)benzenesulfonamide] | < 0.6 µM
24 | COC(=O)c1ccc(S(=O)(=O)Nc2cc(C(=O)NC3CCN(C)CC3)c3c(c2)C2(CCC2)C(=O)N3)c(F)c1 [Compound 80, Methyl 3-fluoro-4-(N-(7′-((1-methylpiperidin-4-yl)carbamoyl)-2′-oxospiro[cyclobutane-1,3′-indolin]-5′-yl)sulfamoyl)benzoate] | > 1 µM
